The values below come from patent publication US12577587B2 (priority 2009, dated 2026).

Common to all, as to assay type: cell-based, human
Experiment [1] concerns KBM7 cells.
In experiment [2] the test system is KBM7 cells. The source holds these as a separate data set.
The test system of experiment [3] is KBM7 cells. The source holds these as a separate data set.

Entries after “also recorded” stand apart in the source; their conditions may differ.

Regarding `Cc1ccc(NC(=O)c2ccc(CN3CCN(C)CC3)cc2)cc1Nc1nccc(-c2cccnc2)n1` [Gleevec, imatinib], in the experiment with KBM7 cells [1], the “sensitivity to Gleevec (apoptosis)” value is recorded as “very sensitive; also recorded: sensitive”.

In the experiment with KBM7 cells [2], polybrene registered an infection efficiency of 33%.

For the compound TRAIL, the Cell viability entry in the experiment with KBM7 cells [3] is “decreased dramatically”. On to protamine sulphate, for which the infection efficiency in the experiment with KBM7 cells [2] is 44%.
